Data set [1] relates to rat aortic rings (microvessel outgrowth). The data set is described as follows: Rat aortic ring assay of angiogenesis. The note with it: 50 μM, 5 days. Type of data set: cell-based, Sprague Dawley rats. The method, then:
Matrigel® matrix (BD Biosciences) was defrosted overnight on ice. The wells of a 24 well plate were coated with 300 μL of the gel using frozen pipette tips. The gel was left to set at room temperature. When required, six week old male Sprague Dawley rats were euthanized by CO2 and decapitation. The blood was drained from the tissue and the descending aorta dissected. The aorta was cleaned in EBM media, the over lying fascia removed, and the tissue was sliced into 1-mm sections using a sterile scalpel and tweezers. The sections were rinsed in clean EBM then placed onto the coagulated gel. Another 300 μL of Matrigel® matrix was pipetted onto the ring and left to set for 30 minutes. EGM™-II endothelial growth medium (500 μL) was added to each well. The rings were incubated overnight at 37° C. The next day the media was removed and replaced with EBM containing compounds (50 μM) or media. TNP-470 ((Chloracetyl) carbamic acid (3R,4S,5S,6R)-5-methoxy-4-[(2R,3R)-2-methyl-3-(3-methyl-2-butenyl)oxiranyl]-1-oxaspiro[2.5]oct-6-yl ester) was used as a positive control. The rings were incubated in the compounds for 5 days. On day 5 the rings were imaged using an EVOS™ scope. The vessel outgrowth was quantified by binary conversion in Image J open-source image processing software and average outgrowth calculated (FIG. 9).

The test system of a further data set is chicken embryos. Nature of the data set: Chicken embryo development / teratogenicity. The class given is in vivo, white leghorn chicken. Particulars: in words; applied at HH stage 17-18. The method, then:
Chicken Embryology: Fertilized white leghorn chicken embryos were incubated at 38° C. and staged according to Hamburger and Hamilton (HH) stages of development (1951). Embryos were tested at HH stage 17-18 (day 2.5). Following membrane removal, test compounds or vehicle control solutions were applied globally over the embryo. The eggs were sealed and the development of the embryos was monitored up to HH stage 30 (E9).
Compounds of interest were screened in chicken embryos (FIGS. 7I-7P).
(§1) Concentrations used in the WT zebrafish and chicken embryo assays to assess for teratogenesis, were equal to or higher than those utilized in the fil1:EGFP and mpo:GFP zebrafish assays

A further data set has as its system WT zebrafish embryos. Nature of the data set: WT zebrafish embryo development / teratogenicity. Particulars: in words; at concentrations active in fli1:EGFP or mpo:GFP assays. Type of data set: in vivo, zebrafish (Danio rerio).
Description: To determine the effects of the candidate compounds on embryonic development, two in vivo model systems (developing zebrafish and chicken embryos) were utilized.
Malformations in the development of the zebrafish embryo were noted, including inhibition of eye, otic vesicle and fin development (FIGS. 7A-7F). […] Embryos were screened at concentrations previously determined, in this study, to be anti-angiogenic or anti-inflammatory in the fli1:EGFP and mpo:GFP assays respectively.
as §1

Entries after “also recorded” stand apart in the source; their conditions may differ.

In the case of `O=C1c2ccccc2CN1C12CC3CC(CC(O)(C3)C1)C2` [Compound 86, 2,3-Dihydro-2-(tricyclo[3.3.1.1^3,7]dec-1-hydroxy-3-yl)-1H-isoindol-1-one], the microvessel outgrowth in data set [1] was determined as 17.3%.
Turning to `CC(N1Cc2c(N)cccc2C1=O)C12CC3CC(CC(C3)C1)C2` (stereo not drawn) [Compound 81], in the data set on chicken embryos, the “effect on development / mortality of chicken embryos” value is “hemorrhaging throughout the body and head; also recorded: growth reduction and hemorrhaging throughout the head”.
On to `Nc1cccc2c1CN(C13CC4CC(CC(C4)C1)C3)C2=O` [Compound 77, 2,3-Dihydro-4-amino-2-(tricyclo[3.3.1.1^3,7]dec-1-yl)-1H-isoindol-1-one], for which the “effect on development / mortality of zebrafish embryos” value in the data set on WT zebrafish embryos is on record as “no apparent effect on the development of the zebrafish embryo”.

Values taken from US11440880B2, “Thalidomide analogs and methods of use” (The USA, as represented by the Secretary, Department of …, priority 2015, dated 2022).
